Laboratory results reported in US11602534B2, “Pyrimidine derivative kinase inhibitors” (HEFEI INSTITUTES OF PHYSICAL SCIENCE, CHINESE ACADEMY OF …, priority 2017, dated 2023).

How the values were obtained:
P210/T315I-BaF3 = assay: Proliferation of P210/T315I-BaF3 cells, CCK8 cell viability assay; format: cell-based; conditions: Mus musculus, 72 hours, stably expressing BCR-ABL/T315I
In short: (§1)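 Murine BaF3 cells made IL-3-independent by retroviral transduction of human kinase domains fused to N-terminal TEL or TPR fragments; parental BaF3 included. Living cells quantified by CCK8 (dehydrogenase activity) read-out, giving GI50 in μM.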

TEL-PDGFRβ-BaF3 = assay: Proliferation of TEL-PDGFRβ-BaF3 cells, CCK8 cell viability assay; format: cell-based; conditions: Mus musculus, 72 hours, stably expressing PDGFRβ kinase
In short: (§2)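 Growth inhibition is expressed as GI50 in μM, with living-cell number estimated by reductive dehydrogenase activity in a CCK8 assay. The engineered BaF3 lines express TEL-fused human cKIT, PDGFRα or PDGFRβ and proliferate without IL-3 only through that kinase.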

P210-BaF3 = assay: Proliferation of P210-BaF3 cells, CCK8 cell viability assay; format: cell-based; conditions: Mus musculus, 72 hours, stably expressing BCR-ABL mutant activated kinase
In short: as §1

BaF3 = assay: Proliferation of BaF3 cells, CCK8 cell viability assay; format: cell-based; conditions: Mus musculus, 72 hours
In short: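 Human kinase-region sequences were PCR-amplified, fused behind N-terminal TEL in MSCV-Puro and stably introduced into mouse BaF3 by retrovirus. IL-3 was then removed to give kinase-dependent lines. Compound effects on these and on parental BaF3 are scored as GI50 (μM) via CCK8 viable-cell quantification.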

FLT3-ITD-BaF3 = assay: Proliferation of FLT3-ITD-BaF3 cells, CCK8 cell viability assay; format: cell-based; conditions: Mus musculus, 72 hours, stably expressing FLT3/ITD
In short: as §1

TEL-VEGFR2-BaF3 = assay: Proliferation of TEL-VEGFR2-BaF3 cells, CCK8 cell viability assay; format: cell-based; conditions: Mus musculus, 72 hours, stably expressing VEGFR2 kinase
In short: as §1

Tel-FLT3-BaF3 = assay: Proliferation of Tel-FLT3-BaF3 cells, CCK8 cell viability assay; format: cell-based; conditions: Mus musculus, 72 hours, stably expressing FLT3 kinase
In short: as §1

Tel-cKit-BaF3 = assay: Proliferation of Tel-cKit-BaF3 cells, CCK8 cell viability assay; format: cell-based, mouse; conditions: Mus musculus; 72 hours, CCK8; stably expressing cKIT kinase
In short: as §2

TEL-PDGFRα-BaF3 = assay: Proliferation of TEL-PDGFRα-BaF3 cells, CCK8 cell viability assay; format: cell-based; conditions: Mus musculus, 72 hours, stably expressing PDGFRα kinase
In short: as §2

Tel-cKit/T670I-BaF3 = assay: Proliferation of Tel-cKit/T670I-BaF3 cells, CCK8 cell viability assay; format: cell-based; conditions: Mus musculus, 72 hours, stably expressing cKIT/T670I
In short: as §2

Tel-RET-BaF3 = assay: Proliferation of Tel-RET-BaF3 cells, CCK8 cell viability assay; format: cell-based; conditions: Mus musculus, 72 hours, stably expressing RET kinase
Description: In this example the following cells were used: […] (purchased from ATCC), mouse P210-BaF3 (stably expressing BCR-ABL mutant activated kinase), mouse P210/T315I-BaF3 (stably expressing BCR-ABL/T315I mutant activated kinase), mouse FLT3-ITD-BaF3 (stably expressing FLT3/ITD mutant activated kinase), mouse TEL-FLT3-BaF3 (stably expressing FLT3 kinase), mouse TEL-cKIT-BaF3 (stably expressing cKIT kinase), mouse BaF3-tel/T670I-cKit (stably expressing cKIT/T670I mutant activated kinase), mouse Tel-VEGFR2-BaF3 (stably expressing VEGFR2 kinase), mouse Tel-PDGFRα-BaF3 (stably expressing PDGFRα kinase), mouse Tel-PDGFRβ-BaF3 (stably expressing PDGFRβ kinase), mouse Tel-RET-BaF3 (stably expressing RET kinase). The above cell lines were all constructed by our laboratory according to the following method: the kinase region sequences of human P210, P210/T315I, FLT3/ITD, FLT3, cKIT, cKIT/T670I, VEGFR2, PDGFRα, PDGFRβ, RET were respectively amplified by PCR, and inserted into MSCV-Puro vectors having N-terminal TEL or TPR fragments (Clontech). The vectors were stably transfected into mouse BaF3 cells by means of retrovirus, and the growth factor IL-3 were removed, eventually obtaining cell lines that depend on transferred protein P210, P210/T315I, FLT3/ITD, FLT3, cKIT, cKIT/T670I, VEGFR2, PDGFRα, PDGFRβ, or RET.
GI50 (unit: μM) was calculated by quantifying the number of living cells based on quantitative measurement of reductive dehydrogenase in living cells with CCK8 cell viability assay kit (Bestbio, China).

Row | Compound | GI50 (P210/T315I-BaF3) [nM] | GI50 (TEL-PDGFRβ-BaF3) [nM] | GI50 (P210-BaF3) [nM] | GI50 (BaF3) [nM] | GI50 (FLT3-ITD-BaF3) [nM] | GI50 (TEL-VEGFR2-BaF3) [nM] | GI50 (Tel-FLT3-BaF3) [nM] | GI50 (Tel-cKit-BaF3) [nM] | GI50 (TEL-PDGFRα-BaF3) [nM] | GI50 (Tel-cKit/T670I-BaF3) [nM] | GI50 (Tel-RET-BaF3) [nM]
1 | CC(=O)Nc1cc(Oc2ccc(NC(=O)Cc3cc(C)ccc3C)cc2)ncn1 [Example 7, N-[4-(6-acetylamino-pyrimidin-4-yloxy)-phenyl]-2-(2,5-dimethyl-phenyl)-acetamide] | > 10000 | 70 | > 10000 | > 10000 | 67 | 518 | 236 | 3210 | 35 | > 10000 | > 10000
2 | CC(=O)Nc1cc(Oc2ccc(NC(=O)Cc3ccc(Cl)cc3Cl)cc2)ncn1 [Example 8, N-[4-(6-acetylamino-pyrimidin-4-yloxy)-phenyl]-2-(2,4-dichloro-phenyl)-acetamide] | > 10000 | 3 | 6740 | > 10000 | 4 | 139 | 17 | 524 | 1 | > 10000 | > 10000
3 | CC(=O)Nc1cc(Oc2ccc(NC(=O)Cc3cccc([N+](=O)[O-])c3C)cc2)ncn1 [Example 9, N-[4-(6-acetylamino-pyrimidin-4-yloxy)-phenyl]-2-(2-methyl-3-nitro-phenyl)-acetamide] | > 10000 | 10 | > 10000 | > 10000 | 2 | 304 | 12 | 584 | 4 | 5630 | > 10000
4 | COc1cc(CC(=O)Nc2ccc(Oc3cc(NC(C)=O)ncn3)cc2)ccc1O [Example 11, N-[4-(6-acetylamino-pyrimidin-4-yloxy)-phenyl]-2-(4-hydroxy-3-methoxy-phenyl)-acetamide] | > 10000 | 271 | > 10000 | > 10000 | 346 | 1520 | 1100 | > 10000 | 227 | > 10000 | > 10000
5 | CC(=O)Nc1cc(Oc2ccc(NC(=O)Cc3cccc(Oc4ccccc4)c3)cc2)ncn1 [Example 12, N-[4-(6-acetylamino-pyrimidin-4-yloxy)-phenyl]-2-(3-phenoxy-phenyl)-acetamide] | > 10000 | 29 | > 10000 | > 10000 | 204 | 229 | 649 | 2130 | 20 | 8640 | 672
6 | CC(=O)Nc1cc(Oc2ccc(NC(=O)Cc3cccc(Br)c3)cc2)ncn1 [Example 13, N-[4-(6-acetylamino-pyrimidin-4-yloxy)-phenyl]-2-(3-bromo-phenyl)-acetamide] | > 10000 | 33 | > 10000 | > 10000 | 99 | 566 | 616 | 6890 | 4 | > 10000 | > 10000
7 | CC(=O)Nc1cc(Oc2ccc(NC(=O)C(O)c3ccc(Br)cc3)cc2)ncn1 (stereo not drawn) [Example 14, N-[4-(6-acetylamino-pyrimidin-4-yloxy)-phenyl]-2-(4-bromo-phenyl)-2-hydroxy-acetamide] | > 10000 | 341 | > 10000 | > 10000 | 284 | 1240 | 713 | > 10000 | 89 | > 10000 | > 10000
8 | CC(=O)Nc1cc(Oc2ccc(NC(=O)Cc3cccc(F)c3F)cc2)ncn1 [Example 16, N-[4-(6-acetylamino-pyrimidin-4-yloxy)-phenyl]-2-(2,3-difluoro-phenyl)-acetamide] | > 10000 | 109 | > 10000 | > 10000 | 247 | 853 | 818 | > 10000 | 12 | > 10000 | 247
9 | CC(=O)Nc1cc(Oc2ccc(NC(=O)Cc3ccccc3Br)cc2)ncn1 [Example 17, N-[4-(6-acetylamino-pyrimidin-4-yloxy)-phenyl]-2-(2-bromo-phenyl)-acetamide] | > 10000 | 105 | > 10000 | > 10000 | 129 | 553 | 744 | > 10000 | 13 | > 10000 | 229
10 | COc1ccccc1CC(=O)Nc1ccc(Oc2cc(NC(C)=O)ncn2)cc1 [Example 24, N-[4-(6-acetylamino-pyrimidin-4-yloxy)-phenyl]-2-(2-methoxy-phenyl)-acetamide] | > 10000 | 356 | > 10000 | > 10000 | 331 | 3100 | 1760 | > 10000 | 77 | > 10000 | > 10000
11 | CC(=O)Nc1cc(Oc2ccc(NC(=O)Cc3ccccc3F)cc2)ncn1 [Example 25, N-[4-(6-acetylamino-pyrimidin-4-yloxy)-phenyl]-2-(2-fluoro-phenyl)-acetamide] | 1040 | 73 | > 10000 | > 10000 | 263 | 2110 | 1150 | > 10000 | 33 | > 10000 | > 10000
12 | CC(=O)Nc1cc(Oc2ccc(NC(=O)Cc3ccccc3Cl)cc2)ncn1 [Example 26, N-[4-(6-acetylamino-pyrimidin-4-yloxy)-phenyl]-2-(2-chloro-phenyl)-acetamide] | > 10000 | 180 | > 10000 | > 10000 | 77 | 1240 | 436 | 8680 | 74 | > 10000 | > 10000
13 | Cc1ccc(NC(=O)NC2CCC(Oc3cc(NCCO)ncn3)CC2)cc1C(F)(F)F (stereo not drawn) [Example 40, 1-{4-[6-(2-hydroxy-ethylamino)-pyrimidin-4-yloxy]-cyclohexyl}-3-(4-methyl-3-trifluoromethyl-phenyl)-urea] | 3930 | 330 | 5360 | 5060 | 168 | 5090 | 580 | 5190 | 21 | 2400 | 4180
14 | COCCNc1cc(OC2CCC(NC(=O)Nc3ccc(C)c(C(F)(F)F)c3)CC2)ncn1 (stereo not drawn) [Example 41, 1-{4-[6-(2-methoxy-ethylamino)-pyrimidin-4-yloxy]-cyclohexyl}-3-(4-methyl-3-trifluoromethyl-phenyl)-urea] | 4690 | 233 | 4430 | 7800 | 109 | 2900 | 263 | 5120 | 59 | 707 | 3180
15 | Cc1ccc(NC(=O)N[C@H]2CC[C@H](Oc3cc(NCCO)ncn3)CC2)cc1C(F)(F)F [Example 42, 1-((1R,4R)-4-((6-((2-hydroxyethyl)amino)pyrimidin-4-yl)oxy)cyclohexyl)-3-(4-methyl-3-(trifluoromethyl)phenyl)urea] | 4110 | 96 | 5380 | 5500 | 274 | 3770 | 198 | 5180 | 94 | 3910 | 3590
